Laboratory results from PubChem BioAssay (NCI).
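Growth conditions: 96-well plates. Treatment: test compound, 48 hours, 5 concentrations. Analysis: linear interpolation between bracketing concentrations; unreached endpoints set to highest concentration. The concentration for 50% growth inhibition is given as GI50. TGI: concentration producing complete growth inhibition.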

Key:
Assay in all cases: NCI anticancer screen, dose series, 48 h
HCT-116 colon = tested on: HCT-116 colon
MDA-MB-435 = tested on: MDA-MB-435
MCF7 breast = tested on: MCF7 breast
NCI-H460 lung = tested on: NCI-H460 lung
BT-549 breast = tested on: BT-549 breast
SK-OV-3 ovarian = tested on: SK-OV-3 ovarian
MOLT-4 leukemia = tested on: MOLT-4 leukemia
HOP-92 NSCLC = tested on: HOP-92 NSCLC
RPMI-8226 leukemia = tested on: RPMI-8226 leukemia
HL-60(TB) leukemia = tested on: HL-60(TB) leukemia
HCC-2998 colon = tested on: HCC-2998 colon
NCI-H522 lung = tested on: NCI-H522 lung
RXF 393 renal = tested on: RXF 393 renal
NCI-H226 lung = tested on: NCI-H226 lung
SF-295 CNS = tested on: SF-295 CNS
NCI/ADR-RES ovarian = tested on: NCI/ADR-RES ovarian
IGROV1 ovarian = tested on: IGROV1 ovarian
OVCAR-4 ovarian = tested on: OVCAR-4 ovarian
MALME-3M melanoma = tested on: MALME-3M melanoma
UACC-62 melanoma = tested on: UACC-62 melanoma
A549 NSCLC = tested on: A549 NSCLC
UO-31 renal = tested on: UO-31 renal
HCT-15 colon = tested on: HCT-15 colon
SNB-19 CNS = tested on: SNB-19 CNS
LOX IMVI melanoma = tested on: LOX IMVI melanoma
OVCAR-3 ovarian = tested on: OVCAR-3 ovarian
OVCAR-8 ovarian = tested on: OVCAR-8 ovarian
SN12C renal = tested on: SN12C renal
EKVX NSCLC = tested on: EKVX NSCLC
K-562 leukemia = tested on: K-562 leukemia
DU-145 prostate = tested on: DU-145 prostate
HT29 colon = tested on: HT29 colon
SK-MEL-2 melanoma = tested on: SK-MEL-2 melanoma
MDA-MB-468 breast = tested on: MDA-MB-468 breast
MDA-MB-231 breast = tested on: MDA-MB-231 breast
SF-268 CNS = tested on: SF-268 CNS
UACC-257 melanoma = tested on: UACC-257 melanoma
SW-620 colon = tested on: SW-620 colon
CCRF-CEM leukemia = tested on: CCRF-CEM leukemia
U251 CNS = tested on: U251 CNS
HOP-62 NSCLC = tested on: HOP-62 NSCLC
SR leukemia = tested on: SR leukemia
M14 melanoma = tested on: M14 melanoma
SK-MEL-5 melanoma = tested on: SK-MEL-5 melanoma
COLO 205 colon = tested on: COLO 205 colon
TK-10 renal = tested on: TK-10 renal
786-0 renal = tested on: 786-0 renal
SNB-75 CNS = tested on: SNB-75 CNS
HS 578T breast = tested on: HS 578T breast
ACHN renal = tested on: ACHN renal
SF-539 CNS = tested on: SF-539 CNS
CAKI-1 renal = tested on: CAKI-1 renal
KM12 colon = tested on: KM12 colon
SK-MEL-28 melanoma = tested on: SK-MEL-28 melanoma
NCI-H23 lung = tested on: NCI-H23 lung
A498 renal = tested on: A498 renal
OVCAR-5 ovarian = tested on: OVCAR-5 ovarian
PC-3 prostate = tested on: PC-3 prostate
T-47D breast = tested on: T-47D breast

C#CCN(C)CCCOc1ccc(N(CC)C(=O)c2cc(C(C)C)c(O)cc2O)cc1Cl
GI50 (HCT-116 colon): 138 nM
TGI (HCT-116 colon): 13300 nM
GI50 (MDA-MB-435): 174 nM
TGI (MDA-MB-435): 12000 nM
GI50 (MCF7 breast): 56.1 nM
TGI (MCF7 breast): 13700 nM
GI50 (NCI-H460 lung): 68.7 nM
TGI (NCI-H460 lung): 10900 nM
GI50 (BT-549 breast): 1750 nM
TGI (BT-549 breast): 14300 nM
GI50 (SK-OV-3 ovarian): 52.1 nM
TGI (SK-OV-3 ovarian): 12400 nM
GI50 (MOLT-4 leukemia): 139 nM
TGI (MOLT-4 leukemia): 13200 nM
GI50 (HOP-92 NSCLC): 446 nM
TGI (HOP-92 NSCLC): 2700 nM
GI50 (RPMI-8226 leukemia): 294 nM
TGI (RPMI-8226 leukemia): 3170 nM
GI50 (HL-60(TB) leukemia): 73 nM
TGI (HL-60(TB) leukemia): 2720 nM
GI50 (HCC-2998 colon): 273 nM
TGI (HCC-2998 colon): 1910 nM
GI50 (NCI-H522 lung): 121 nM
TGI (NCI-H522 lung): 5480 nM
GI50 (RXF 393 renal): 917 nM
TGI (RXF 393 renal): 12500 nM
GI50 (NCI-H226 lung): 604 nM
TGI (NCI-H226 lung): 17900 nM
GI50 (SF-295 CNS): 384 nM
TGI (SF-295 CNS): 12600 nM
GI50 (NCI/ADR-RES ovarian): 339 nM
TGI (NCI/ADR-RES ovarian): 7320 nM
GI50 (IGROV1 ovarian): 193 nM
TGI (IGROV1 ovarian): 13600 nM
GI50 (OVCAR-4 ovarian): 1630 nM
TGI (OVCAR-4 ovarian): 19400 nM
GI50 (MALME-3M melanoma): 207 nM
TGI (MALME-3M melanoma): 1580 nM
GI50 (UACC-62 melanoma): 174 nM
TGI (UACC-62 melanoma): 793 nM
GI50 (A549 NSCLC): 146 nM
TGI (A549 NSCLC): 15000 nM
GI50 (UO-31 renal): 156 nM
TGI (UO-31 renal): 13200 nM
GI50 (HCT-15 colon): 94.8 nM
TGI (HCT-15 colon): 12200 nM
GI50 (SNB-19 CNS): 430 nM
TGI (SNB-19 CNS): 13400 nM
GI50 (LOX IMVI melanoma): 139 nM
TGI (LOX IMVI melanoma): 359 nM
GI50 (OVCAR-3 ovarian): 595 nM
TGI (OVCAR-3 ovarian): 14900 nM
GI50 (OVCAR-8 ovarian): 219 nM
TGI (OVCAR-8 ovarian): 15600 nM
GI50 (SN12C renal): 105 nM
TGI (SN12C renal): 8280 nM
GI50 (EKVX NSCLC): 484 nM
TGI (EKVX NSCLC): 8530 nM
GI50 (K-562 leukemia): 91.4 nM
TGI (K-562 leukemia): 23000 nM
GI50 (DU-145 prostate): 59.5 nM
TGI (DU-145 prostate): 15300 nM
GI50 (HT29 colon): 2970 nM
TGI (HT29 colon): 13100 nM
GI50 (SK-MEL-2 melanoma): 979 nM
TGI (SK-MEL-2 melanoma): 15500 nM
GI50 (MDA-MB-468 breast): 115 nM
TGI (MDA-MB-468 breast): 462 nM
GI50 (MDA-MB-231 breast): 230 nM
TGI (MDA-MB-231 breast): 2750 nM
GI50 (SF-268 CNS): 1660 nM
TGI (SF-268 CNS): 23900 nM
GI50 (UACC-257 melanoma): 434 nM
TGI (UACC-257 melanoma): 11400 nM
GI50 (SW-620 colon): 192 nM
TGI (SW-620 colon): 13800 nM
GI50 (CCRF-CEM leukemia): 85.7 nM
TGI (CCRF-CEM leukemia): 13300 nM
GI50 (U251 CNS): 399 nM
TGI (U251 CNS): 15100 nM
GI50 (HOP-62 NSCLC): 400 nM
TGI (HOP-62 NSCLC): 19000 nM
GI50 (SR leukemia): 48.3 nM
TGI (SR leukemia): 8500 nM
GI50 (M14 melanoma): 462 nM
TGI (M14 melanoma): 13000 nM
GI50 (SK-MEL-5 melanoma): 397 nM
TGI (SK-MEL-5 melanoma): 1790 nM
GI50 (COLO 205 colon): 3080 nM
TGI (COLO 205 colon): 13400 nM
GI50 (TK-10 renal): 195 nM
TGI (TK-10 renal): 12300 nM
GI50 (786-0 renal): 1370 nM
TGI (786-0 renal): 17400 nM
GI50 (SNB-75 CNS): 947 nM
TGI (SNB-75 CNS): 16100 nM
GI50 (HS 578T breast): 1560 nM
TGI (HS 578T breast): 21100 nM
GI50 (ACHN renal): 105 nM
TGI (ACHN renal): 12700 nM
GI50 (SF-539 CNS): 361 nM
TGI (SF-539 CNS): 12800 nM
GI50 (CAKI-1 renal): 350 nM
TGI (CAKI-1 renal): 14600 nM
GI50 (KM12 colon): 111 nM
TGI (KM12 colon): 10500 nM
GI50 (SK-MEL-28 melanoma): 413 nM
TGI (SK-MEL-28 melanoma): 12700 nM
GI50 (NCI-H23 lung): 346 nM
TGI (NCI-H23 lung): 13900 nM
GI50 (A498 renal): 679 nM
TGI (A498 renal): 15500 nM
GI50 (OVCAR-5 ovarian): 482 nM
TGI (OVCAR-5 ovarian): 16000 nM
GI50 (PC-3 prostate): 232 nM
TGI (PC-3 prostate): 14700 nM
GI50 (T-47D breast): 88.8 nM
TGI (T-47D breast): 11900 nM
